Data taken from patent US6727276B2, “Epothilone derivatives for the treatment of refractory tumors” (Bristol-Myers Squibb Company, priority 2001, dated 2004).
Where two headings read alike, the source gives them in different places.

Key:
Pat-21 breast carcinoma = test system: Pat-21 breast carcinoma; parameters: species or system nude mice; conditions: mouse, in vivo
in vivo = conditions: Balb/c nu/nu, mouse
[1] = test system: tubulin isolated from calf brain; type: biochemical
[2] = test system: panel of tumor cell lines; test: Cytotoxicity assay (tetrazolium-based colorimetric), panel of tumor cell lines; conditions: 72 h, read-out: IC50 (median cytotoxic concentration)
[3] = test system: Pat-7 human ovarian carcinoma
[4] = test system: HCT116/VM46 human colon carcinoma xenograft; test: In vivo antitumor testing, HCT116/VM46 xenograft
[5] = In vivo antitumor testing, HCT116/VM46 xenograft; conditions: Balb/c nu/nu, mouse, in vivo, iv
[6] = test system: Pat-26 human pancreatic carcinoma; test: In vivo antitumor testing, Pat-26 xenograft
[7] = In vivo antitumor testing, Pat-26 xenograft; conditions: Balb/c nu/nu, mouse, in vivo, iv
[8] = test system: A2780Tax ovarian carcinoma xenograft (mutated tubulin); parameters: species or system nude mice; conditions: mouse, in vivo
HCT116/VM46 cells = type: cell-based, human
[9] = paclitaxel, results obtained in separate studies

Compound: C/C(=C\c1csc(CN)n1)[C@@H]1C[C@@H]2O[C@]2(C)CCC[C@H](C)[C@H](O)[C@@H](C)C(=O)C(C)(C)[C@@H](O)CC(=O)O1 (relative stereo) [BMS-310705, [1S-[1R*,3R*(E),7R*,10S*,11R*,12R*,16S*]]-7,11-dihydroxy-8,8,10,12,16-pentamethyl-3-[1-methyl-2-(2-aminomethyl-4-thiazolyl)ethenyl]-4,17-dioxabicyclo[14.1.0]heptadecane-5,9-dione]
- LCK (gross log cell kill) (Pat-21 breast carcinoma): >4.1
- water solubility (in words) (Water solubility): highly water-soluble
- MTD (in vivo; iv): 8 mg/kg
- MTD (in vivo; po, pH 8): 90 mg/kg
- Polymerization Potency, EC0.01 [1]: 7400 nM
- Ratio of Polymerization Potency of Analog/Paclitaxel [1]: 1.7
- tubulin polymerization potency relative to paclitaxel (fold more potent) [1]: about 2.5 fold
- IC50 [2]: 0.9 to 3.5 nM
- gross log cell kill (LCK) ([3]; BMS-310705 (PO), PO, q4dx3 at OD/MTD 90 mg/kg, Expt. 18): 2.4
- LCK (gross log cell kill) ([3]; BMS-310705, IV, q4dx3 at OD 8 mg/kg, Expt. 14): 2.4
- antitumor activity given orally compared with IV administration (in words) ([3]; PO vs IV): equivalent to that produced by IV drug administration
- oral antitumor activity (in words) ([3]; PO, every 4 days x 3 schedule, FIG. 4): highly active orally
- LCK (gross log cell kill) ([4]; BMS-310705, IV, q4dx3 at OD 7.5 mg/kg, Expt. 40): 1.5
- MTD [5]: 7.5 mg/kg
- LCK (gross log cell kill) ([6]; BMS-310705, IV, q4dx3 at OD 10 mg/kg, Expt. 968): 1.2
- MTD [7]: 10 mg/kg

Compound: CC(=O)O[C@H]1C(=O)[C@@]2(C)[C@H]([C@H](OC(=O)c3ccccc3)[C@]3(O)C[C@H](OC(=O)[C@H](O)[C@@H](NC(=O)c4ccccc4)c4ccccc4)C(C)=C1C3(C)C)[C@]1(OC(C)=O)CO[C@@H]1C[C@@H]2O [Paclitaxel, paclitaxel, reference compound]
- LCK (gross log cell kill) (Pat-21 breast carcinoma): 0.3
- LCK (gross log cell kill) [8]: 0.8
- ratio of concentration (R/S or resistance ratio) to inhibit cell growth by 50% (HCT116/VM46 cells): 155 fold
- LCK (gross log cell kill) [3, 9]: 0.8
- LCK (gross log cell kill) [4, 9]: 0.55
- LCK (gross log cell kill) [6, 9]: 0.4

Compound: Epothilone B [BMS-205535]
- Polymerization Potency, EC0.01 [1]: 1800 nM
- Ratio of Polymerization Potency of Analog/Paclitaxel [1]: 0.3

Compound: C/C(=C\c1csc(C)n1)[C@@H]1C[C@@H]2O[C@@H]2CCC[C@H](C)[C@H](O)[C@@H](C)C(=O)C(C)(C)[C@@H](O)CC(=O)O1 [BMS-212188, Epothilone A]
- Ratio of Polymerization Potency of Analog/Paclitaxel [1]: 0.4
- Polymerization Potency, EC0.01 ([1]; concentration inducing initial slope of 0.01 OD/minute): 2000 nM
